According to the Kinase Knowledgebase extract (Sharma et al. 2016):

Key:
PIK3CA (human) = PIK3CA (human) (UniProt P42336); assay: Inhibition of PIK3CA Kinase Activity
PIK3CD (Human) = PIK3CD (Human) (UniProt O00329); assay: Inhibition of PIK3CD Kinase Activity
PIK3CG (human) = PIK3CG (human) (UniProt P48736); assay: Inhibition of PIK3CG Kinase Activity
PIK3CB (Human) = PIK3CB (Human) (UniProt P42338); assay: Inhibition of PIK3CB Kinase Activity

Measured: IC50

Sequence of PIK3CA (human) (P42336 whole entry, looked up): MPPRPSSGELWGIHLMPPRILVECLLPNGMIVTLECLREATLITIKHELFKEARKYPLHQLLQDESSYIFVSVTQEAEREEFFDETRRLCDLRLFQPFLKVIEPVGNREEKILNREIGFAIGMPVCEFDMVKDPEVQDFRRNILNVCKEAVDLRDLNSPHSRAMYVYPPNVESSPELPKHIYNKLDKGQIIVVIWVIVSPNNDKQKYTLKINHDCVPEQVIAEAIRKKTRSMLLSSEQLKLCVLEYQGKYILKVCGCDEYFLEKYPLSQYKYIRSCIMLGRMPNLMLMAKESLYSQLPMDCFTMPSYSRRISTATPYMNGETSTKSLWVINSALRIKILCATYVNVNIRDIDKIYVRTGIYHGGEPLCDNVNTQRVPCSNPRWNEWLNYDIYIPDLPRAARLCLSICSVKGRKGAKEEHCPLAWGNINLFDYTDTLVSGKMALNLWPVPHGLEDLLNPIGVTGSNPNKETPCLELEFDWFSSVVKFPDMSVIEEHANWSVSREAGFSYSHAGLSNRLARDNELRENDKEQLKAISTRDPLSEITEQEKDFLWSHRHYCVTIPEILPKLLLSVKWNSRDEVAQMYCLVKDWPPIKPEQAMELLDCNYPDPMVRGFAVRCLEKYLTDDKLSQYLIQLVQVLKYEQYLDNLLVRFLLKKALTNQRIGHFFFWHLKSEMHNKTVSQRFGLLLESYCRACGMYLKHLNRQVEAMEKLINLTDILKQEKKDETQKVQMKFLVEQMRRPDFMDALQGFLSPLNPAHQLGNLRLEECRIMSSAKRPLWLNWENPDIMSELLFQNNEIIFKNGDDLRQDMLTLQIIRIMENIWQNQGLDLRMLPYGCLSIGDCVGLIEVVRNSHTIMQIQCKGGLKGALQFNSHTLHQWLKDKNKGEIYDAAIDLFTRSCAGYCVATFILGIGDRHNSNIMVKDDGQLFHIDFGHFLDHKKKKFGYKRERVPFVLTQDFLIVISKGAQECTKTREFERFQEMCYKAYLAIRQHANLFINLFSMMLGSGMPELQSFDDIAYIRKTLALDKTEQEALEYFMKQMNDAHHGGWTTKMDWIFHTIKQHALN
Sequence of PIK3CD (Human) (O00329 whole entry, looked up): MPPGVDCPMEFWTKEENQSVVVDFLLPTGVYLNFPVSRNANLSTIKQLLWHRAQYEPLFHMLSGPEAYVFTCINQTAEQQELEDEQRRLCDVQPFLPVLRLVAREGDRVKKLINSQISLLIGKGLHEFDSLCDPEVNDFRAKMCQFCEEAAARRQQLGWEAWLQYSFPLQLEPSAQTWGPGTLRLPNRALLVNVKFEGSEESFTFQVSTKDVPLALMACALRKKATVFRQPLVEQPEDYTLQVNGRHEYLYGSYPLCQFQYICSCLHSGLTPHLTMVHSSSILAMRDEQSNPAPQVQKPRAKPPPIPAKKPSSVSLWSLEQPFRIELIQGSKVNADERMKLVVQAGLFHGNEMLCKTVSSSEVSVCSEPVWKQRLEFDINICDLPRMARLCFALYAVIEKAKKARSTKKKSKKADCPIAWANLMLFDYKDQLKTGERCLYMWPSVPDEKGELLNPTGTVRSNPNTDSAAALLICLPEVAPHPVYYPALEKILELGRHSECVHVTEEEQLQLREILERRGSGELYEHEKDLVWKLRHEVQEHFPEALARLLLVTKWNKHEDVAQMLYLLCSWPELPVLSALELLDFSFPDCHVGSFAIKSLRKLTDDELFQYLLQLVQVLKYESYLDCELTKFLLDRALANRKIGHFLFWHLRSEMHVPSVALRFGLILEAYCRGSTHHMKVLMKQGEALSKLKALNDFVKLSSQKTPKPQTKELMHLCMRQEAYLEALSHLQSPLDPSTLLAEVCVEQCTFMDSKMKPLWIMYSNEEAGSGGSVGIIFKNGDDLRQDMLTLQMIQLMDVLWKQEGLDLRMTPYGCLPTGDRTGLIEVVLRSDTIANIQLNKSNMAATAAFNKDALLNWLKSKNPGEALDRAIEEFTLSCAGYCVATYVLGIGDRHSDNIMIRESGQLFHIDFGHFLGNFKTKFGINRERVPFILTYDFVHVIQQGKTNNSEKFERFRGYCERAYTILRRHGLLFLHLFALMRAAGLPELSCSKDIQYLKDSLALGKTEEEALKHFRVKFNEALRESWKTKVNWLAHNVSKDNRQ
Sequence of PIK3CG (human) (P48736 whole entry, looked up): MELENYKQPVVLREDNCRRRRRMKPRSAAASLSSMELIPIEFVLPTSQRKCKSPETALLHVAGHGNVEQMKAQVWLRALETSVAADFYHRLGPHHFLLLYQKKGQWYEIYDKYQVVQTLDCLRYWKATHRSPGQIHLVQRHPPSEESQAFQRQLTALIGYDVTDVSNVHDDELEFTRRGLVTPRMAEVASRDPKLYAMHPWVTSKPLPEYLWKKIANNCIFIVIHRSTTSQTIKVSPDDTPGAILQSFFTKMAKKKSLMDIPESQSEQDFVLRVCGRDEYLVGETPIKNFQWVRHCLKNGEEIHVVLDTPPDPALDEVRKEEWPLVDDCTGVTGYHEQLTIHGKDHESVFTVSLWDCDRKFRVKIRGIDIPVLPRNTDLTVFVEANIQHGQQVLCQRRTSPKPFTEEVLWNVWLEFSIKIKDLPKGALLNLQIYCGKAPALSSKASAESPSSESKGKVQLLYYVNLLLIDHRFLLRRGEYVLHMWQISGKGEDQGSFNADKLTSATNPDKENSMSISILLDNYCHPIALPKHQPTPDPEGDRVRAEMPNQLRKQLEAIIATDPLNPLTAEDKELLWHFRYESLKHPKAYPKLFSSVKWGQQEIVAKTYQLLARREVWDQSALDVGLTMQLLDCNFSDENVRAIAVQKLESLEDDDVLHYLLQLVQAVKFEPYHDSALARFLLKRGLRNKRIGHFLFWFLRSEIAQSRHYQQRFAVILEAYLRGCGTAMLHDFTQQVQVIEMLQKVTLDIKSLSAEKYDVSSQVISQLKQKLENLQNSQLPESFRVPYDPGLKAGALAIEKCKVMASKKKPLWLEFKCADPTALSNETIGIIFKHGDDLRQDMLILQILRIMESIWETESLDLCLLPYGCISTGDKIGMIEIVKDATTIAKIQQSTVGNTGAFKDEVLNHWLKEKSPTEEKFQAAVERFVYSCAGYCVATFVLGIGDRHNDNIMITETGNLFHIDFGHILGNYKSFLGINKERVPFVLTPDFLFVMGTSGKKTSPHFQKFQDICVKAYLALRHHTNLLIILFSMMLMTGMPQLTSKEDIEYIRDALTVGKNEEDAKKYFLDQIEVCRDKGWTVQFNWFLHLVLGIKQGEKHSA
Sequence of PIK3CB (Human) (P42338 whole entry, looked up): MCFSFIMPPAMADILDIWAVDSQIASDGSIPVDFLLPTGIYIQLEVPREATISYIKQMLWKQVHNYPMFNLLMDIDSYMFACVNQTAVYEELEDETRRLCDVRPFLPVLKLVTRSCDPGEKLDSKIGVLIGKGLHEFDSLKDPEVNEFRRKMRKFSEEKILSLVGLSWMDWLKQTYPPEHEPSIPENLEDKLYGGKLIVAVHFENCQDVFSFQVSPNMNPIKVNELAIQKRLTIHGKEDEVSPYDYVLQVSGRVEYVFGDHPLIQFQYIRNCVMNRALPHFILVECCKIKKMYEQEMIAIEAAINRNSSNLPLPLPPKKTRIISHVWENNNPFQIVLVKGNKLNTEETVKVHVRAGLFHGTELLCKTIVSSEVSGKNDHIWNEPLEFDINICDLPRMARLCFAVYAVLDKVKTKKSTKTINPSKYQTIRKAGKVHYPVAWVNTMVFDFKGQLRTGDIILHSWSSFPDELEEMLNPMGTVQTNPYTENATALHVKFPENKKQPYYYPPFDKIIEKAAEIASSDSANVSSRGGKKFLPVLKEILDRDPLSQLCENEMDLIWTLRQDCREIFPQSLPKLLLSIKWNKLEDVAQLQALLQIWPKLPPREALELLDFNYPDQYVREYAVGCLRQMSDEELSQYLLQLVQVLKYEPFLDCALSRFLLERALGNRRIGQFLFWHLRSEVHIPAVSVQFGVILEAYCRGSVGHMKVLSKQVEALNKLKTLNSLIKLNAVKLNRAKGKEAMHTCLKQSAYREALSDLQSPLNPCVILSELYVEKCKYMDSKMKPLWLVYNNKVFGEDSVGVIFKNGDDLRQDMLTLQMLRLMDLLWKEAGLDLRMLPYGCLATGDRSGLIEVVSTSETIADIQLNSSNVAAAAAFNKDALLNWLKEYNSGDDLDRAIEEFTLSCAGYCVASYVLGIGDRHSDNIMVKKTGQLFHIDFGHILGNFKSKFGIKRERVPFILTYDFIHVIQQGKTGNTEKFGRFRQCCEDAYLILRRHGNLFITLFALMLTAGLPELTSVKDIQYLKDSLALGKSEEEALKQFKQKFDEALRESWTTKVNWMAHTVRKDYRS

CC(C)(O)Cn1ncc2c(-c3cnc(N)nc3)nc(N3CCOCC3)nc21
< 1000 nM: PIK3CA (human) | PIK3CD (Human) | PIK3CG (human) | PIK3CB (Human)

Nc1ncc(-c2nc(N3CCOCC3)nc3c2cnn3C2CCOCC2)cn1
< 1000 nM: PIK3CA (human) | PIK3CD (Human) | PIK3CG (human) | PIK3CB (Human)

CN1CCN(C(=O)N2CCC(n3ncc4c(-c5cnc(N)nc5)nc(N5CCOCC5)nc43)CC2)CC1
< 1000 nM: PIK3CA (human) | PIK3CD (Human) | PIK3CG (human) | PIK3CB (Human)
